Test results as given in patent US12077503B2, “Substituted cyclic amides and their use as herbicides” (FMC CORPORATION, priority 2015, dated 2024).

Assays:
Type in all cases: in vivo
Kochia (Kochia scoparia) [1] = assay: Test A postemergence; conditions: Bassia scoparia, post-emergence, 240 h, Postemergence, read-out: Kochia plant response rating (0 to 100 scale)
How it was run: (§1)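 In a loam soil and sand blend, planted seeds got a preemergence directed soil spray, and young plants at the one- to two-leaf stage, 2–10 cm high, got a postemergence application; ~10 d greenhouse hold; injury rated visually, 0 = none, 100 = complete control.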

[2] = system: blackgrass (Alopecurus myosuroides); assay: Test A postemergence; conditions: Alopecurus myosuroides, post-emergence, 240 h, Postemergence, read-out: Blackgrass plant response rating (0 to 100 scale)
How it was run: as §1

[3] = system: pigweed (Amaranthus retroflexus); assay: Test A postemergence; conditions: Amaranthus retroflexus, post-emergence, 240 h, Postemergence, read-out: Pigweed plant response rating (0 to 100 scale)
How it was run: as §1

[4] = system: ryegrass, Italian (Italian ryegrass, Lolium multiflorum); assay: Test A postemergence; conditions: Lolium multiflorum, post-emergence, 240 h, Postemergence, read-out: Ryegrass, Italian plant response rating (0 to 100 scale)
How it was run: as §1

corn (Zea mays) = assay: Test A postemergence; conditions: Zea mays, post-emergence, 240 h, Postemergence, read-out: Corn plant response rating (0 to 100 scale)
How it was run: as §1

[5] = system: barnyardgrass (Echinochloa crus-galli); assay: Test A postemergence; conditions: Echinochloa crus-galli, post-emergence, 240 h, Postemergence
How it was run: as §1

[6] = system: ragweed (common ragweed, Ambrosia elatior); assay: Test A postemergence; conditions: Ambrosia artemisiifolia, post-emergence, 240 h, Postemergence, read-out: Ragweed plant response rating (0 to 100 scale)
How it was run: as §1

[7] = system: giant foxtail (Setaria faberii); assay: Test A postemergence; conditions: Setaria faberi, post-emergence, 240 h, Postemergence, read-out: Foxtail, Giant plant response rating (0 to 100 scale)
How it was run: as §1

[8] = system: wheat (Triticum aestivum); assay: Test A postemergence; conditions: Triticum aestivum, post-emergence, 240 h, Postemergence, read-out: Wheat plant response rating (0 to 100 scale)
How it was run: as §1

[9] = system: Galium (catchweed bedstraw, Galium aparine); assay: Test A postemergence; conditions: Galium, post-emergence, 240 h, Postemergence, read-out: Galium plant response rating (0 to 100 scale)
How it was run: as §1

[10] = system: sedge, umbrella (small-flower umbrella sedge, Cyperus difformis); assay: Test B flooded paddy test; conditions: Cyperus difformis, 250 g ai/ha, Flood; 0 to 100 scale where 0 is no effect and 100 is complete control; read-out: Sedge, Umbrella plant response rating
How it was run: (§2)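 Evaluation by eye, against controls, occurred 13–15 d post-treatment in a greenhouse, using a 0 (no effect) to 100 (complete control) scale. Application was into the paddy water, 3 cm deep over the soil, on 2-leaf plants.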

[11] = system: ducksalad (Heteranthera limosa); assay: Test B flooded paddy test; conditions: Heteranthera limosa, 250 g ai/ha, Flood; 0 to 100 scale where 0 is no effect and 100 is complete control; read-out: Ducksalad plant response rating
How it was run: as §2

[12] = system: barnyardgrass (Echinochloa crus-galli); assay: Test B flooded paddy test; conditions: Echinochloa crus-galli, 250 g ai/ha, Flood; 0 to 100 scale where 0 is no effect and 100 is complete control; read-out: Barnyardgrass plant response rating
How it was run: as §2

rice (Oryra sativa) = assay: Test B flooded paddy test; conditions: Oryza sativa, 250 g ai/ha, Flood; 0 to 100 scale where 0 is no effect and 100 is complete control; read-out: Rice plant response rating
How it was run: as §2

Kochia (Kochia scoparia) [13] = assay: Test A preemergence; conditions: Bassia scoparia, pre-emergence, 240 h, 0 to 100 scale where 0 is no effect and 100 is complete control, read-out: Kochia plant response rating
How it was run: as §1

[14] = system: pigweed (Amaranthus retroflexus); assay: Test A preemergence; conditions: Amaranthus retroflexus, pre-emergence, 240 h, 0 to 100 scale where 0 is no effect and 100 is complete control, read-out: Pigweed plant response rating
[15] = system: ryegrass, Italian (Italian ryegrass, Lolium multiflorum); assay: Test A preemergence; conditions: Lolium multiflorum, pre-emergence, 240 h, 0 to 100 scale where 0 is no effect and 100 is complete control, read-out: Ryegrass, Italian plant response rating
How it was run: as §1

[16] = system: barnyardgrass (Echinochloa crus-galli); assay: Test A preemergence; conditions: Echinochloa crus-galli, pre-emergence, 240 h, 0 to 100 scale where 0 is no effect and 100 is complete control, read-out: Barnyardgrass plant response rating
How it was run: as §1

[17] = system: ragweed (common ragweed, Ambrosia elatior); assay: Test A preemergence; conditions: Ambrosia artemisiifolia, pre-emergence, 240 h, 0 to 100 scale where 0 is no effect and 100 is complete control, read-out: Ragweed plant response rating
How it was run: as §1

[18] = system: giant foxtail (Setaria faberii); assay: Test A preemergence; conditions: Setaria faberi, pre-emergence, 240 h, 0 to 100 scale where 0 is no effect and 100 is complete control, read-out: Foxtail, Giant plant response rating
How it was run: as §1

[19] = 125 g ai/ha, visual rating about 10 d after treatment
[20] = 31 g ai/ha, 0 is no effect, 100 is complete control
[21] = 125 g ai/ha, preemergence, visual injury rating, approximately 10 d

Work on O=C(Nc1ccccc1F)C1C(=O)N(CC(F)F)CC1c1cccc(C(F)(F)F)c1 (stereo not drawn) [Compound 1293] yielded a pest or weed control at 125 g/ha (Kochia (Kochia scoparia) [1]; [19]) of 0%, a pest or weed control at 31 g/ha (Kochia (Kochia scoparia) [1]; [20]) of 0% and a pest or weed control at 125 g/ha [2, 19] of 0%. For the same molecule, the pest or weed control at 31 g/ha [2, 20] was 0%, the pest or weed control at 125 g/ha [3, 19] was 0% and the pest or weed control at 31 g/ha [3, 20] was 0%. The pest or weed control at 125 g/ha [4, 19] was 0%, the pest or weed control at 31 g/ha [4, 20] was 0% and the plant injury at 125 g/ha (corn (Zea mays); [19]) was 0%. It also gave a plant injury at 31 g/ha (corn (Zea mays); [20]) of 0%, a pest or weed control at 125 g/ha ([5]; 125 g ai/ha, visual rating about 10 d after treatment, read-out: Barnyardgrass plant response rating (0 to 100 scale, 0 no effect, 100 complete control)) of 20% and a pest or weed control at 31 g/ha ([5]; 31 g ai/ha, 0 is no effect, 100 is complete control, read-out: Barnyardgrass plant response rating (0 to 100 scale)) of 0%. The pest or weed control at 125 g/ha [6, 19] was 0%, the pest or weed control at 31 g/ha [6, 20] was 0% and the pest or weed control at 125 g/ha [7, 19] was 0%. The pest or weed control at 31 g/ha [7, 20] was 0%, the plant injury at 125 g/ha [8, 19] was 0% and the plant injury at 31 g/ha [8, 20] was 0%. For the same molecule, the pest or weed control at 125 g/ha [9, 19] was 0%, the pest or weed control at 31 g/ha [9, 20] was 0% and the pest or weed control at 250 g/ha [10] was 0%. The pest or weed control at 250 g/ha [11] was 0%, the pest or weed control at 250 g/ha [12] was 0% and the pest or weed control at 250 g/ha (rice (Oryra sativa)) was 0%. The pest or weed control at 31 g/ha (Kochia (Kochia scoparia) [13]; 31 g ai/ha, Preemergence) was 0%, the pest or weed control at 125 g/ha (Kochia (Kochia scoparia) [13]; [21]) was 0% and the pest or weed control at 31 g/ha ([14]; 31 g ai/ha, Preemergence) was 0%. The pest or weed control at 125 g/ha [14, 21] was 0%, the pest or weed control at 31 g/ha ([15]; 31 g ai/ha, Preemergence) was 0% and the pest or weed control at 125 g/ha [15, 21] was 0%. For the same molecule, the pest or weed control at 31 g/ha ([16]; 31 g ai/ha, Preemergence) was 0%, the pest or weed control at 125 g/ha [16, 21] was 20% and the pest or weed control at 31 g/ha ([17]; 31 g ai/ha, Preemergence) was 0%. The pest or weed control at 125 g/ha [17, 21] was 0%, the pest or weed control at 31 g/ha ([18]; 31 g ai/ha, Preemergence) was 0% and the pest or weed control at 125 g/ha [18, 21] was 20%.
